These are literature values, as cited in patent publication US20230071314A1, “POLYMERIC COMPOSITIONS FOR SUSTAINED DELIVERY OF VMAT2 INHIBITORS” (Foresee Pharmaceuticals Co., Ltd., priority 2021, published 2023).

Where two headings read alike, the source gives them in different places.

In series [1] the target is serotonin 5-HT7 receptors (Homo sapiens, UniProt P34969). Particulars: Harriott et al. 2018; read-out: off-target binding affinity to serotonin 5-HT7 receptors.
The target in series [2] is dopamine D2 (Homo sapiens, UniProt P14416). Particulars: Harriott et al. 2018; read-out: off-target binding affinity to dopamine D2.
dopamine D2, sequence (P14416 1-414 isoform P14416-2): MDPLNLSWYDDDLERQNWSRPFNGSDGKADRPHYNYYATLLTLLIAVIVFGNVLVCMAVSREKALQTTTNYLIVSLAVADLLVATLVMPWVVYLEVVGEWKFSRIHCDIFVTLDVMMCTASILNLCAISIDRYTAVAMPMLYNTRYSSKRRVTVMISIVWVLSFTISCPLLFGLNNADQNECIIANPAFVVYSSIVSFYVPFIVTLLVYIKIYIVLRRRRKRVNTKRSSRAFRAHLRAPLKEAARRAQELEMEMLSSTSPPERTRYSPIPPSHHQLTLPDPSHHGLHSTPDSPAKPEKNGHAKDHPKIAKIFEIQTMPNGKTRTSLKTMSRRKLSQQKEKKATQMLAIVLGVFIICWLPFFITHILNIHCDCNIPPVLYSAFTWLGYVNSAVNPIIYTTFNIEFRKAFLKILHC

serotonin 5-HT7 receptors, sequence (P34969 whole entry): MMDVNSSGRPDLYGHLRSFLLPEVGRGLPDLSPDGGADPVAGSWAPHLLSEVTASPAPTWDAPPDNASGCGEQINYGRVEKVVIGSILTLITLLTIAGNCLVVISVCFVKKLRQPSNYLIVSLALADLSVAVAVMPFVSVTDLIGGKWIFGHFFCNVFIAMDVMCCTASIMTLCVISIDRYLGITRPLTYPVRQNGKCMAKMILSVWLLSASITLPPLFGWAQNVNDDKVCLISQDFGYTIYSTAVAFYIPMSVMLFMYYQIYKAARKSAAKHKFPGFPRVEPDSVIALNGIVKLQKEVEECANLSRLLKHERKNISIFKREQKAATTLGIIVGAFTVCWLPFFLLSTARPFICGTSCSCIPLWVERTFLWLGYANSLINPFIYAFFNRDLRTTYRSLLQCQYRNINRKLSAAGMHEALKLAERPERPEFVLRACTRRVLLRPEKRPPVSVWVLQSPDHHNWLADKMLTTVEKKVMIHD

Ivermectin: the “increase of cumulative release” value by setting is: (Ivermectin loading increased from 1% to 2%) 2.4-2.9 times; (Ivermectin loading increased from 1% to 4%) 3.1-3.7 times.

For `COc1cc2c(cc1OC)C1CC(O)C(CC(C)C)CN1CC2` [S,S,S-DHTBZ ((−)-α), [−]-α-dihydrotetrabenazine], the Ki in series [1] is 0.071 µM; in series [2], 0.18 µM.

Consider `COc1cc2c(cc1OC)C1CC(O)C(CC(C)C)CN1CC2` [R,S,S-DHTBZ ((−)-β), [−]-β-dihydrotetrabenazine], for which the Ki in series [1] was 0.0059 µM; in series [2] it was 0.053 µM.
